Measured values from patent publication US20040038950A1, “Pharmaceutical composition for treating IL-1 related diseases or disorders” (priority 2002, published 2004).

How the values were obtained:
[1] = test system: (IL-1β)-induced Cox-2 gene expression; experiment: (IL-1β)-induced Cox-2 gene expression in chondrocytes; type: cell-based, human; settings: 10, 50, 100 μM with IL-1β, 72 hr
Description: Sixteen hours prior to a treatment, the complete culture medium was replaced with a serum-free medium. Chondrocyte alginate bead cultures were then treated with IL-1β ([…], (Calbiochem) and DHEA (0, 10, 50 or 100 μM) for 3 days.
Total RNA from chondrocytes was extracted using RNeasy Mini Kit (QIAGEN). Reverse transcription from 1 μg of total RNA was conducted using First Strand cDNA Synthesis Kit (MBI Fermentas) according to manufacturer's recommendation with random hexamers. The resulting cDNA was then amplified by polymerase chain reaction using AccuPower PCR Premix (Bioneer, Korea) in a final volume of 20 μl using three thermocycler temperatures (30 sec at […], 30 sec at 60° C., and 30 sec at […]). All reactions were determined to be in the linear range of amplification with the cycle number ranging from 14 to 30. The PCR products were analyzed by separation on a 2% agarose gel followed by ethidium bromide staining. Following electrophoresis, photographs were taken and analyzed using a densitometric program (TINA; Raytest Isotopenmeβgerate, Germany). Integrated density values for the genes in question were then normalized to the glyceraldehyde-3-phosphate dehydrogenase (GAPDH) values for a semiquantitative assessment. After normalizing with respect to GAPDH, percentage increase or decrease was determined. Each experiment was repeated at least three times. […]

MMP-3 = experiment: Western blot of MMP-3 in chondrocyte lysates; type: cell-based, human; settings: 0, 10 or 100 μ DHEA, three days
Description: Chondrocytes were isolated from the knee joint of patient undergoing a knee replacement due to osteoarthritis. Cartilage was digested with 0.2% protease Type XIV (Sigma) for 1 hour, followed by 3-hour incubation with 0.2% collagenase Type IA (Sigma) at 37° C. Following the incubation, the undigested cartilage fragments were removed using a 70 μm Nylon sieve. Chondrocytes were washed with DPBS and maintained in monolayer culture for 7 days in Dulbecco's modified Eagle's medium (DMEM; Life Technologies Inc.) which contained 10% fetal bovine serum (FBS; Life Technologies), 100 units/ml penicillin-streptomycin (Life Technologies) and 25 μg/ml L-ascorbic acid (Sigma). All experiments were performed with primary or first passage cells. The preparation of chondrocytes in alginate beads was carried out with 4×10^6 cells per 1 ml of alginate. Alginate cultures were maintained for 7 days at 37° C., 5% CO2 and 95% humidity and incubated with various concentrations of DHEA (0, 10, 50 or 100 μM) for a varing period of time. DHEA was purchased from Sigma and used after dissolving either in ethanol or dimethyl sulfoxide (DMSO). […]
To investigate the effect of DHEA on the protein concentration, Western blot analysis was performed. […] Protein concentration of the supernatant was determined by Bio-Rad protein assay (Bio-Rad, USA) using bovine serum albumin (BSA) as a standard. […]

[2] = test system: patients diagnosed to have degenerative arthritis; experiment: Topical application of DHEA to arthritic patient; type: in vivo, human; settings: for resting pain score: before 14.34; for joint effusion score: before 2.12; for medial joint line tenderness score: before 2.18; for motion pain score: before 8.11; for pain at ascending/descending stairs score: before 10.87
Description: Ten patients diagnosed to have degenerative arthritis were tested to investigate the therapeutic effect of DHEA in topical application. Testees had the symptoms including dolor of knee joint (resting or motion pain), swelling, deformation, tenderness, crepitation or stiffness of joint. Patients who had received intraarticular injection, steroid treatment or surgery within 1 month before this test were excluded, as well as those who had severe cardiac or liver diseases, kidney failure, gastrointestinal diseases, or poor systemic condition such as anomalotrophy. Besides, women who were pregnant or breast-feeding babies were excluded in this study.
The volunteers were randomly grouped into Group I and Group II, and subject to the experiment for topical application of DHEA. A portion of knee joint showing dolor symptom was coated with either 5% DHEA or PBS (phosphate buffered saline) twice a day for 1 month. Any alteration of symptom was checked prior to the application, 1 week and then again 1 month during the application regimen.
The severity of pain was scored ranging from 0 (most severe pain) to 20 points (no pain) at an interval of 5 points.
In addition, both joint effusion and medial joint-line tenderness were recorded during a physical test administered by a doctor based on the point rating scale: highness, 4; medium, 3; slightness, 2; and not found, 0.
The opinions on symptom were recorded as 5 categories relying on the subjective opinions of patients and the opinions of doctors regarding both dolor of patients and the results of physical tests: superiority, goodness, mediocrity, poorness and exceeding poorness.
In addition, the assessment regarding the level of improvement on symptoms was recorded in accordance with the following criteria: 3-step improvement, “exceeding improvement”; 2-step improvement, “improvement”; 1-step improvement, “slight improvement”; “no change”; and “aggravation”.

[3] = Group I (5 patients), 1 month after application
[4] = Group I, topical, 1 month after application
[5] = Group I, topical, 1 week after application
[6] = Group I, topical, 1 week and 1 month vs before application

In the case of `C[C@]12CC[C@H](O)CC1=CC[C@@H]1[C@@H]2CC[C@]2(C)C(=O)CC[C@@H]12` [DHEA, dehyroepiandrosterone], the “(IL-1β)-induced Cox-2 gene expression” value [1] is reported as “no significantly change”, the “MMP-3 protein level (Western blot)” value (MMP-3) is reported as “did not change” and the “opinion of doctor: no change” value [2, 3] is reported as 4 persons. For the same compound, the “opinion of doctor: slight improvement” value [2, 3] was 1 person, the “opinion of patient: aggravation” value [2, 3] was 1 person and the “opinion of patient: no change” value [2, 3] was 3 persons. The “opinion of patient: slight improvement” value [2, 3] was 1 person, the resting pain score ([2]; Group I, topical 5% DHEA twice a day, 1 week after application) was 15.29 points and the joint effusion score [2, 4] was 2.27 points. The “medial joint line tenderness score” value [2, 4] was 2.54 points, the motion pain score [2, 4] was 8.51 points and the “pain at ascending/descending stairs score” value [2, 4] was 10.49 points. For the same compound, the resting pain score [2, 4] was 15.02 points, the joint effusion score [2, 5] was 1.98 points and the “medial joint line tenderness score” value [2, 5] was 2.11 points. For the same compound, the motion pain score [2, 5] was 8.34 points, the “pain at ascending/descending stairs score” value [2, 5] was 10.11 points and the “change of joint effusion” value [2, 6] was “not a significant change”. The “change of medial joint line tenderness” value [2, 6] was “not a significant change”, the “change of motion pain” value [2, 6] was “not a significant change” and the “change of pain at ascending/descending stairs” value [2, 6] was “not a significant change”. The “change of resting pain” value [2, 6] was “not a significant change”.
